A value given as a limit tells only on which side of the number the result lay.

These results are taken from patent publication US9724351B2, “Compounds for the treatment of paramoxyvirus viral infections” (priority 2012, dated 2017).

Data set [1] can be described thus: Cytotoxicity Determination. In kind it is cell-based. The conditions noted are these: human, HEp-2 cells, without addition of virus, CCK-8 readout, bins (Table 4: greater than 100 μM; Table 5: equal to or less than 100 μM and greater than 10 μM), read-out: 50% cytotoxicity concentration (CC50). The method in brief: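 CC50 was derived from CCK-8 optical density after a 3-4 h reagent incubation. Before that, cells without virus had been treated for 5 days at 37 °C, 5% CO2 with compound at seven ½-step final concentrations from 100 μM, in duplicate wells.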

The subject of data set [2] is Respiratory Syncytial Virus (RSV) long strain (ATCC#VR-26). In words: RSV Antiviral Assay (CPE reduction assay). Format: cell-based. To be noted: human respiratory syncytial virus, 120 h; HEp-2 cells infected with RSV long strain, 5 days, CCK-8 readout; bins (Table 2: less than 1 μM; Table 3: equal to or higher than 1 μM and less than 50 μM); read-out: 50% effective concentration (EC50). Summed up:
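Cytopathic-effect protection measured after 5 days at 37 °C, 5% CO2 via CCK-8 dehydrogenase readout at 450 nm (630 nm reference), EC50 regressed from mean O.D. Host HEp-2 cells received RSV long strain at 100 TCID50/well; compound 9-point ⅓ series starting 100 μM or 1 μM, 1% DMSO, duplicate wells.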

For `CCN(/N=C/c1csc2c(F)cccc12)C(=O)CNC(=O)c1ccc(OCCO)c(OC)c1` [Compound 2301], the CC50 at 5 days in data set [1] is above 100 µM. Besides, the EC50 in data set [2] was below 1 µM.
As for `C/C(=N\NC(=O)CNC(=O)c1ccc2c(c1)OCCN2C)c1csc2ccccc12` [Compound 470], in data set [1], the CC50 at 5 days is above 100 µM. Moreover, in data set [2], the EC50 fell in the range of 1 to 50 µM.
As for `COc1cc(C(=O)N[C@@H](CO)C(=O)c2ccc(OC)c(-c3ccc(F)c(Cl)c3)n2)ccc1OCCO` [Compound 1832], the CC50 at 5 days in data set [1] is 10 to 100 µM. The EC50 in data set [2] was below 1 µM.
For the compound `COc1ccc(C(=O)NCC(=O)N/N=C(\C)c2csc3ccccc23)cc1OC` [Compound 411], the CC50 at 5 days in data set [1] was 10 to 100 µM. Further, the EC50 in data set [2] was below 1 µM.
For `COCCOc1ccc(C(=O)NCC(=O)c2ccc(OC)c(-c3ccc(F)c(Cl)c3)n2)cc1` [Compound 1311], in data set [1], the CC50 at 5 days was above 100 µM. In addition, the EC50 in data set [2] was in the range of 1 to 50 µM.
`COc1ccc(C(=O)NC(C)CC(=O)c2ccc(OC)c(-c3csc4c(F)cccc34)n2)cc1OC` (centres unmarked) [Compound 1801]: the CC50 at 5 days in data set [1] was above 100 µM. In addition, the EC50 in data set [2] was in the range of 1 to 50 µM.
Turning to `CCc1ccc(C(=O)CNC(=O)c2ccc(OCCO)c(OC)c2)nc1-c1csc2c(F)cccc12` [Compound 2106], the CC50 at 5 days in data set [1] was 10 to 100 µM. The EC50 in data set [2] was below 1 µM.
Regarding `COc1ccc(C(=O)NCC(=O)N/N=C(\C)c2coc3ccccc23)cc1OC` [Compound 439], the CC50 at 5 days in data set [1] was above 100 µM. Further, the EC50 in data set [2] is 1 to 50 µM.
Regarding `COc1ccc(C(=O)NCC(=O)c2ccc(OC)c(-c3cnoc3)n2)cc1OC` [Compound 1510], the CC50 at 5 days in data set [1] fell in the range of 10 to 100 µM. Moreover, the EC50 in data set [2] lay within 1 to 50 µM.
On to `CCCCOc1ccc(C(=O)NCC(=O)N/N=C(\C)c2csc3ccccc23)cc1OC` [Compound 483], for which the CC50 at 5 days in data set [1] was in the range of 10 to 100 µM. Moreover, the EC50 in data set [2] fell in the range of 1 to 50 µM.
